Patent US9023789B2, “Amylin analogs and pharmaceutical compositions thereof” (Novo Nordisk A/S, priority 2012, dated 2015)
Numbered stars: 1 amine (or outer) side, 2 acyl side, 3 side chain; on linkers, the order of the positions; unused ones are H or OH. Bridge positions count the residues as written; N and C are the ends. Side chains are listed from the residue outwards. Peptide text beside a SMILES is read from it. * marks the point of attachment. C20 diacid = O=C(O)CCCCCCCCCCCCCCCCCCC(=O)*; γGlu = O=C(O)[C@H](CCC(=O)[*:2])N[*:1]; AEEA = NCCOCCOCC(=O)O

What was measured:
[1] = target: T1, human amylin 3(a) receptor (human calcitonin receptor + RAMP-3) in BHK570 cells (Homo sapiens, UniProt O60896+P30988); test: ASSAY (II)a functional assay, human amylin receptor (CRE luciferase); format: cell-based
T1 construct: expressed in transfected cells
Summary of the method: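 Readout is luminescence from a cAMP-responsive CRE-luc reporter, developed with LucLite for 30 min at room temperature. Cells were treated for 3 h at 37 °C in 10% FBS/DMEM buffered with 10 mM Hepes (pH 7.4).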

[2] = target: T2, human amylin receptor (membranes from Amylin 3(a)/CRE-luc cells) (Homo sapiens, UniProt O60896+P30988); test: ASSAY (V) binding to the human amylin receptor (SPA, 125I-rat amylin);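 further: competition binding of cell membranes (35 ng/µL) mixed with SPA beads in 384-well plates at 40 µL total volume, read by scintillation counting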
T2 construct: expressed in transfected cells
T2 sequence (P30988 25-474): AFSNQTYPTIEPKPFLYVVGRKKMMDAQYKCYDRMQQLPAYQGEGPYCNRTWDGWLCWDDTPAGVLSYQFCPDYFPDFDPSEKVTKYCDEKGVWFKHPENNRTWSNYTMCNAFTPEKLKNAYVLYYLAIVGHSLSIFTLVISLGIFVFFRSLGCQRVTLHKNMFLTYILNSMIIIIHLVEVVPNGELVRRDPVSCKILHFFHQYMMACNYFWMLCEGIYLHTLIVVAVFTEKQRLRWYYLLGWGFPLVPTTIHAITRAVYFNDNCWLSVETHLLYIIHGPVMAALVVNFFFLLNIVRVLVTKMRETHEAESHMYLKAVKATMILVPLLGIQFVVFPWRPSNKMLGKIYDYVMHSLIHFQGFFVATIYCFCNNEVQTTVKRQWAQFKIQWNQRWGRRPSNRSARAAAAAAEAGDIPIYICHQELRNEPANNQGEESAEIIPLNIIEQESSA
T2 sequence (O60896 24-148 partner): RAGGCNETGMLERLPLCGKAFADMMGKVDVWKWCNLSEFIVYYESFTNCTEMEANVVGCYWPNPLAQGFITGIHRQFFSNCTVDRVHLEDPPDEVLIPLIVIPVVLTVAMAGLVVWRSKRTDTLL

[3] = target: T3, rat amylin receptor (rat calcitonin receptor + rat RAMP 3) (Rattus norvegicus, UniProt P32214+Q9JJ73); test: ASSAY (VI) binding to the rat amylin receptor; details: for IC50: binding to rat amylin receptor, read-out: rAmylin-R bind IC50
T3 construct: expressed in transfected cells; host or cells: BHK tk'ts 13 (transient, FuGENE 6), membranes
T3 sequence (P32214 25-479 isoform P32214-2 limits assumed): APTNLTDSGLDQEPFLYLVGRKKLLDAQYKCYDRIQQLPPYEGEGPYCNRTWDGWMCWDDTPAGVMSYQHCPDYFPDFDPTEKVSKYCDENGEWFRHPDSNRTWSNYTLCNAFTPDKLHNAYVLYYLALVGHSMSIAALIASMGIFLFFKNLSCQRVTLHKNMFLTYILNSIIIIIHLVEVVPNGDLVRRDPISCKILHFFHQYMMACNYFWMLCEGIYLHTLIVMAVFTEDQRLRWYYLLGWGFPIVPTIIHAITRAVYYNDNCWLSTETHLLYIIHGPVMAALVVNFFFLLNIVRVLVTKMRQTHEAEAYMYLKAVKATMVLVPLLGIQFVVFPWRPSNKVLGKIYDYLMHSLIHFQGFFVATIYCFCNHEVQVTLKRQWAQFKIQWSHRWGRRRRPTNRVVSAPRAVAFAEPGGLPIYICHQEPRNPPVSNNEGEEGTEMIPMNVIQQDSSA
T3 sequence (Q9JJ73 23-147 partner): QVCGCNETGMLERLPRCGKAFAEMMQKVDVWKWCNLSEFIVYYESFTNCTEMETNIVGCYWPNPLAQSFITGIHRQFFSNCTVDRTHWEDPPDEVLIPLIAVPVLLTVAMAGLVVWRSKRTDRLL
Summary of the method: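 Membranes for this rat amylin receptor binding assay came from BHK tk′ts 13 cells. The cells were transiently transfected with rat calcitonin receptor using the FuGENE® 6 reagent from Roche, as the manufacturer recommends. The cells were collected approximately 48 hours after transfection, and membranes were then prepared.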

[4] = hCTR funct. EC50 divided by hAmylin-R funct. EC50
[5] = hCTR funct. EC50 over hAmylin-R funct. EC50
[6] = human functional selectivity: hCTR funct. EC50 / hAmylin-R funct. EC50
[7] = Table 5, selectivity, hCTR bind IC50 / hAmylin-R bind IC50
[8] = Table 5a, selectivity, hCTR bind IC50 / hAmylin-R bind IC50
[9] = Table 5b, selectivity, hCTR bind IC50 / hAmylin-R bind IC50
[10] = Table 5c, selectivity, hCTR bind IC50 / hAmylin-R bind IC50
[11] = Table 7, human binding selectivity, included for comparison
[12] = Table 7a (preferred compounds), human binding selectivity, included for comparison
[13] = ratio of human calcitonin receptor binding IC50 to human amylin receptor binding IC50
[14] = Table 7, rat binding selectivity, rCTR IC50 / rAmylin-R IC50
[15] = Table 7a (preferred compounds), rat binding selectivity, rCTR IC50 / rAmylin-R IC50
[16] = ratio of rCTR bind IC50 to rAmylin-R bind IC50

Ratio hCT/hAmylin funct. [1, 4]	Ratio hCT/hAmylin funct. [1, 5]	Ratio hCT/hAmylin funct. [1, 6]	Ratio hCT/hAmylin binding [2, 7]	Ratio hCT/hAmylin binding [2, 8]	Ratio hCT/hAmylin binding [2, 9]	Ratio hCT/hAmylin binding [2, 10]	Ratio hCT/hAmylin binding [2, 11]	Ratio hCT/hAmylin binding [2, 12]	Ratio hCT/hAmylin binding [2, 13]	IC50 ([3]; Table 7)	Ratio rCT/rAmylin binding [3, 14]	Ratio rCT/rAmylin binding [3, 15]	Ratio rCT/rAmylin binding [3, 16]	SMILES
9.7	9.7	9.7	101.0	101.0	101.0	101.0	101.0	101.0	101.0	1.58 nM	83.2	83.2	83.2	CC[C@H](C)[C@H](NC(=O)[C@H](C)NC(=O)CNC(=O)[C@H](Cc1ccccc1)NC(=O)[C@H](CC(N)=O)NC(=O)[C@@H]1CCCN1C(=O)[C@H](CO)NC(=O)[C@H](CO)NC(=O)[C@H](Cc1c[nH]cn1)NC(=O)[C@H](CCCNC(=N)N)NC(=O)[C@H](CC(C)C)NC(=O)[C@H](Cc1ccccc1)NC(=O)[C@H](C)NC(=O)[C@H](C)NC(=O)[C@H](CC(C)C)NC(=O)[C@H](CCCNC(=N)N)NC(=O)[C@H](CCC(N)=O)NC(=O)[C@@H](NC(=O)[C@H](C)NC(=O)[C@@H]1CSSC[C@H](NC(=O)[C@@H](N)CCCCNC(=O)CC[C@H](NC(=O)CCCCCCCCCCCCCCCCCCC(=O)O)C(=O)O)C(=O)N[C@@H](CC(N)=O)C(=O)N[C@@H]([C@@H](C)O)C(=O)N[C@@H](C)C(=O)N[C@@H]([C@@H](C)O)C(=O)N1)[C@@H](C)O)C(=O)N1CCC[C@H]1C(=O)N[C@@H](CO)C(=O)N[C@@H](CO)C(=O)N[C@H](C(=O)N[C@@H](CC(N)=O)C(=O)N[C@H](C(=O)NCC(=O)N[C@@H](Cc1c[nH]cn1)C(=O)N[C@@H](CC(N)=O)C(=O)N[C@H](C(=O)N[C@@H](Cc1ccc(O)cc1)C(N)=O)[C@@H](C)O)C(C)C)[C@@H](C)O [Example 93] (H-K([γGlu-C20 diacid])CNTATCATQRLAAFLRHSSPNFGAIPSSTNVGHNTY-NH2; disulfide 2-7; N-terminus assumed)
28.0	28.0	28.0	145.0	145.0	145.0	145.0	145.0	145.0	145.0	0.668 nM	156.4	156.4	156.4	CC[C@H](C)[C@H](NC(=O)[C@H](C)NC(=O)CNC(=O)[C@H](Cc1ccccc1)NC(=O)[C@H](CC(N)=O)NC(=O)[C@@H]1CCCN1C(=O)[C@H](CO)NC(=O)[C@H](CO)NC(=O)[C@H](Cc1c[nH]cn1)NC(=O)[C@H](CCCNC(=N)N)NC(=O)[C@H](CC(C)C)NC(=O)[C@H](Cc1ccccc1)NC(=O)[C@H](Cc1c[nH]cn1)NC(=O)[C@H](C)NC(=O)[C@H](CC(C)C)NC(=O)[C@H](CCCNC(=N)N)NC(=O)[C@H](CCC(N)=O)NC(=O)[C@@H](NC(=O)[C@H](C)NC(=O)[C@@H]1CSSC[C@H](NC(=O)[C@@H](N)CCCCNC(=O)CC[C@H](NC(=O)CC[C@H](NC(=O)CCCCCCCCCCCCCCCCCCC(=O)O)C(=O)O)C(=O)O)C(=O)N[C@@H](CC(N)=O)C(=O)N[C@@H]([C@@H](C)O)C(=O)N[C@@H](C)C(=O)N[C@@H]([C@@H](C)O)C(=O)N1)[C@@H](C)O)C(=O)N1CCC[C@H]1C(=O)N[C@@H](CO)C(=O)N[C@@H](CO)C(=O)N[C@H](C(=O)N[C@@H](CC(N)=O)C(=O)N[C@H](C(=O)NCC(=O)N[C@@H](CO)C(=O)N[C@@H](CC(N)=O)C(=O)N[C@H](C(=O)N[C@@H](Cc1ccc(O)cc1)C(N)=O)[C@@H](C)O)C(C)C)[C@@H](C)O [Example 92]
21.9	21.9	21.9	109.4	109.4	109.4	109.4	109.4	109.4	109.4	0.135 nM	76.6	76.6	76.6	CC[C@H](C)[C@H](NC(=O)[C@H](C)NC(=O)CNC(=O)[C@H](Cc1ccccc1)NC(=O)[C@H](CC(N)=O)NC(=O)[C@@H]1CCCN1C(=O)[C@H](CO)NC(=O)[C@H](CO)NC(=O)[C@H](Cc1c[nH]cn1)NC(=O)[C@H](CCCNC(=N)N)NC(=O)[C@H](CC(C)C)NC(=O)[C@H](Cc1ccccc1)NC(=O)[C@H](CC(N)=O)NC(=O)[C@H](C)NC(=O)[C@H](CC(C)C)NC(=O)[C@H](CCCNC(=N)N)NC(=O)[C@H](CCC(N)=O)NC(=O)[C@@H](NC(=O)[C@H](C)NC(=O)[C@@H]1CSSC[C@H](NC(=O)[C@@H](N)CCCCNC(=O)COCCOCCNC(=O)CC[C@H](NC(=O)CCCCCCCCCCCCCCCCCCC(=O)O)C(=O)O)C(=O)N[C@@H](CC(N)=O)C(=O)N[C@@H]([C@@H](C)O)C(=O)N[C@@H](C)C(=O)N[C@@H]([C@@H](C)O)C(=O)N1)[C@@H](C)O)C(=O)N1CCC[C@H]1C(=O)N[C@@H](CO)C(=O)N[C@@H](CO)C(=O)N[C@H](C(=O)N[C@@H](CC(N)=O)C(=O)N[C@H](C(=O)NCC(=O)N1CCC[C@H]1C(=O)N[C@@H](Cc1c[nH]cn1)C(=O)N[C@H](C(=O)N[C@@H](Cc1ccc(O)cc1)C(N)=O)[C@@H](C)O)C(C)C)[C@@H](C)O [Example 58] (H-K([AEEA-γGlu-C20 diacid])CNTATCATQRLANFLRHSSPNFGAIPSSTNVGPHTY-NH2; disulfide 2-7)
	17.3	17.3	7.8				7.8	7.8		0.659 nM	131.7	131.7		CC[C@H](C)[C@H](NC(=O)[C@H](C)NC(=O)CNC(=O)[C@@H]1CCCN1C(=O)[C@H](CC(N)=O)NC(=O)[C@H](CC(N)=O)NC(=O)[C@H](CO)NC(=O)[C@H](CO)NC(=O)[C@H](Cc1c[nH]cn1)NC(=O)[C@H](CCCNC(=N)N)NC(=O)[C@H](CC(C)C)NC(=O)[C@H](Cc1ccccc1)NC(=O)[C@H](CCC(=O)O)NC(=O)[C@H](C)NC(=O)[C@H](CC(C)C)NC(=O)[C@H](CCCNC(=N)N)NC(=O)[C@H](CCC(N)=O)NC(=O)[C@@H](NC(=O)[C@H](C)NC(=O)[C@@H]1CSSC[C@H](NC(=O)[C@@H](N)CCCCNC(=O)CC[C@H](NC(=O)CC[C@H](NC(=O)CCCCCCCCCCCCCCCCCCC(=O)O)C(=O)O)C(=O)O)C(=O)N[C@@H](CC(N)=O)C(=O)N[C@@H]([C@@H](C)O)C(=O)N[C@@H](C)C(=O)N[C@@H]([C@@H](C)O)C(=O)N1)[C@@H](C)O)C(=O)N[C@@H](CC(C)C)C(=O)N[C@@H](CO)C(=O)N[C@@H](CO)C(=O)N[C@H](C(=O)N[C@@H](CC(N)=O)C(=O)N[C@H](C(=O)NCC(=O)N1CCC[C@H]1C(=O)N[C@@H](CCC(=O)O)C(=O)N[C@H](C(=O)N[C@@H](Cc1ccc(O)cc1)C(N)=O)[C@@H](C)O)C(C)C)[C@@H](C)O [Example 126] (H-K([γGlu-γGlu-C20 diacid])CNTATCATQRLAEFLRHSSNNPGAILSSTNVGPETY-NH2; disulfide 2-7 (inferred); N-terminus assumed)
